Data as given in ChEMBL document CHEMBL1143189.

Target: T1, Type-1 angiotensin II receptor A (Rattus norvegicus) (UniProt P25095)
T1 sequence (whole entry): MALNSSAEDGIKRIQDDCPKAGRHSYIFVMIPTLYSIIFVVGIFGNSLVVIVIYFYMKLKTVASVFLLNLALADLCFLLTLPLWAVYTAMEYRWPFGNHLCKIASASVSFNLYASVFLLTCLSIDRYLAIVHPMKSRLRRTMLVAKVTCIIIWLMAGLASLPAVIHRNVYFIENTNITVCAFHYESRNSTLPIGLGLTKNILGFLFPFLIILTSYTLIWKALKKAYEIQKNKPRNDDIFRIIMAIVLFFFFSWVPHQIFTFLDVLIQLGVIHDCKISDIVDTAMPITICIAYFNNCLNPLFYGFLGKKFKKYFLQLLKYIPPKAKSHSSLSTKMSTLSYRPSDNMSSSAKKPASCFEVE
Assay: Antagonist activity at rat AT1 receptor expressed in CHO cells assessed as angiotensin 2-evoked increase in intracellular calcium level
Format: functional, cell-based

## CCCCc1ncc(/C=C(\Cc2cccs2)C(=O)O)n1Cc1ccc(C(=O)O)cc1
  pKb: 8.8
